{
  "source": "patent US9456589B2",
  "about": "“Elasmobranch-repelling compounds and methods of use” (priority 2005, dated 2016)",
  "key": {"nurse sharks": {"system": "nurse sharks", "assay": "Tonic immobility, Bite Assay", "format": "in vivo, C. cirratum", "protocol": "One bioassay used to observe and measure flight response is the tonic immobility test. Tonic immobility is a state of paralysis that typically occurs when a shark is subject to inversion of its body along the longitudinal axis. This state is called “tonic,” and the shark can remain in this state for up to 15 minutes thereby allowing researchers to observe effects of chemical repellents. The “tonic” state of the shark is first established by releasing seawater in proximity to the “tonic” shark with the same delivery instrument and at the same distance as a “test” repellent compound will be released. Some controls are released with a high flow rate (30 mL/sec) in order to establish that sharks are not awakened by a jet of fluid over their noses. Once behavioral controls are established, a compound or composition that may have a repelling effect is delivered to the shark. […] Using this tonic immobility bioassay researches can quantify the strength of a repellent effect. […]\nIn Bite Assays, a dose of typically less than 5 mL of 3-methylbutanal was presented directly into the shark's mouth using a pipette. […] Because the delivery was directly into the shark's mouth and responses were generally observed immediately upon delivery, time to response was not recorded."}, "[1]": {"system": "sharks (lemon, nurse, blacknose, blacktip pooled)", "assay": "Tonic immobility, Syringe Assay, summary over species", "format": "in vivo", "method_in_brief": "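Test chemical delivered as a bolus of 60 mL or more from one to five feet from the shark, distance set by water current strength. Time from delivery until response was recorded; it depends on bolus size, distance and current as the diffusing cloud reaches the shark.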"}, "[2]": {"system": "captive Cobia and Yellowfin Tuna", "assay": "Feeding behavior of captive fish in the presence of aldehydes", "format": "in vivo", "description": "Similarly, teleost reef fish, such as Triggerfish and Snappers, have been observed feeding and swimming in a cloud of shark-repelling aldehydes. This behavior is presumed to result from the lack of aldehyde-receptors in the fishes' gustatory system."}, "blue sharks": {"system": "blue sharks", "assay": "Tonic immobility, syringe delivery to the mouth of blue sharks", "format": "in vivo, Prionace glauca", "conditions": "two blue sharks, two assays each, 20 mL or less", "description": "The sharks had been captured on rod and reel and were held in tonic immobility along a boat."}, "[3]": {"system": "sharks (lemon, nurse, blacktip, tiger, blacknose pooled)", "assay": "Tonic immobility, Syringe 3/5/10 Assay, summary over species", "format": "in vivo", "protocol": "(§1) One bioassay used to observe and measure flight response is the tonic immobility test. Tonic immobility is a state of paralysis that typically occurs when a shark is subject to inversion of its body along the longitudinal axis. This state is called “tonic,” and the shark can remain in this state for up to 15 minutes thereby allowing researchers to observe effects of chemical repellents. The “tonic” state of the shark is first established by releasing seawater in proximity to the “tonic” shark with the same delivery instrument and at the same distance as a “test” repellent compound will be released. Some controls are released with a high flow rate (30 mL/sec) in order to establish that sharks are not awakened by a jet of fluid over their noses. Once behavioral controls are established, a compound or composition that may have a repelling effect is delivered to the shark. If the compound or composition engenders a flight response, the shark will awaken from the tonic state and rapidly attempt to flee the delivered repellent. Using this tonic immobility bioassay researches can quantify the strength of a repellent effect.\nIn the tonic immobility studies disclosed herein, several different methods were employed for delivery of repelling compounds. A first method for delivery of chemical repellent in tonic immobility studies employed a “Syringe 3/5/10 Assay” method. The “Syringe 3/5/10 Assay” method is so named because a test repellent is delivered to a shark from a distance of about “3” inches with a bolus of about “5” mL with a response to the test repellent considered positive if the shark reacts with a change in behavior within less than about “10” seconds from the time of delivery.\nThe “3/5/10 Syringe Assay” as employed herein delivered a dose of 5-6 mL of a test chemical repellent from a syringe fixed with a needle having a gauge of about 22 from a distance at least 3 inches in front of a shark. Because the test chemical repellent was delivered at a distance from the shark's nares and mouth, a cloud of test chemical repellent was dispersed over the shark within the water column. The dispersed test repellent was subject to water current direction, dispersion and dilution. As a result, a flight response within 10 seconds was considered a positive repellency response. […] Time from delivery to response is related to the size of the bolus delivered from the syringe, distance of the shark from the syringe and water current.\nIn Syringe 3/5/10 Assays, 5-6 mL of 3-methylbutanal was delivered at least 3 inches in front of the shark's mouth. A cloud of the repellent dispersed over the shark within the water column. […] As noted above, because the dispersion of the chemical repellent upon delivery is affected by volume of repellent, water current, and other factors, the time between delivery and response was not correlatable with the potency of the repellent."}, "[4]": {"system": "sharks (lemon, nurse, tiger pooled)", "assay": "Tonic immobility, Hd Syringe Assay, summary over species", "format": "in vivo", "conditions": "species pooled", "method_in_brief": "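Sharks held in tonic immobility by inversion, with seawater sham releases (some at 30 mL/sec) as controls. 3-methylbutanal released slowly by 3 mL syringe (22 gauge) within 3 inches of mouth and nares. Waking/flight response recorded, with time to response where measurable.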"}, "tiger sharks": {"system": "tiger sharks", "assay": "Tonic immobility, Hd Syringe Assay", "format": "in vivo, G. cuvieri", "conditions": "1 ml", "protocol": "as §1\nLemon, nurse, blacktip and tiger sharks were placed in tonic immobility by inverting the shark's body along its longitudinal axis. […]"}},
  "note": "“And” between values parts separate entries of the source, which are not always exact repeats. Equal values may be shown once.",
  "data": [
    {"compound": "CC(C)CC=O", "note": "[3-methylbutanal]", "values": [
      {"measurement": "Bite Y (termination of tonic immobility), trials of trials", "setting": "nurse sharks", "value": "each resulting in termination of tonic immobility and 2/2"},
      {"measurement": "Syringe Y (termination of tonic immobility), trials of trials", "setting": "[1]", "value": "7/7"},
      {"measurement": "feeding behavior of fish in the presence of the aldehyde", "setting": "[2]", "value": "slightly increased"},
      {"measurement": "response to direct delivery to the mouth", "setting": "blue sharks", "value": "behavioral response (classic mouth-agape response)"},
      {"measurement": "Syringe 3/5/10 Y (termination of tonic immobility), trials of trials", "setting": "[3]", "value": "7/7"},
      {"measurement": "Syringe 3/5/10 Y, percent of trials", "setting": "[3]", "value": 100, "unit": "%"},
      {"measurement": "Hd-Syringe N (no response), trials of trials", "setting": "[4]", "value": "one and 1/27"},
      {"measurement": "Hd-Syringe R (behavior response within tonic immobility), trials of trials", "setting": "[4]", "value": "6/27"},
      {"measurement": "Hd-Syringe R, percent of trials", "setting": "[4]", "value": 22, "unit": "%"},
      {"measurement": "Hd-Syringe Y (termination of tonic immobility), trials of trials", "setting": "[4]", "value": "20/27"},
      {"measurement": "Hd-Syringe Y, percent of trials", "setting": "[4]", "value": 74, "unit": "%"},
      {"measurement": "Response (time from delivery to response)", "setting": "tiger sharks", "value": 1, "unit": "s"},
      {"measurement": "TTI (termination of tonic immobility)", "setting": "tiger sharks", "value": "Y"}
    ]}
  ]
}
